Results on five compounds are retold here after patent US9119769B2, “Method for transforming pharmaceutical crystal forms” (The Curators of the University of Missouri, priority 2012, dated 2015).

The structures appear in SMILES notation.

Data set [1] in a line: Gas-induced (pressurized CO2) phase transformation of crystal forms, followed by XRPD. The class given is physicochemical. From the text: The invention teaches that simple pressurization of polymorphic forms of an organic solid, such as a pharmaceutical agent, can effect phase transitions among the forms with ease. More specifically, the inventive method comprises the step of subjecting an organic solid to a pressurized gas under low to moderate pressure at room temperature to a mildly elevated temperature for a period of time. The pressurized gas may be CO2, N2O, and CH4, and the pressure may start at 1 atm, whereas under slightly elevated pressure, the reaction temperature may be lowered, while the reaction time may be shortened.
Refer to FIG. 3, which includes schematic illustrations of the phase transformations between different forms of Clarithromycin 1. […] As expected, desolvated form I can be transformed to form II with greater ease under analogous conditions. […] Different gases including H2, He, CH4, N2, O2, air, and N2O have been studied, among which N2O has similar transformation effect as CO2.
Refer to FIG. 5, which compares the transformations under different gas pressures (350 psi vs. 100 psi) at different durations.
The invention has also studied Lansoprazole 2 transformations under CO2 but at higher pressure conditions.

For data set [2] the following is noted: 1:1 ethanol hydrate; cited from earlier work.
For data set [3] the following is noted: cited from earlier work.

On to `CC[C@H]1OC(=O)[C@H](C)[C@@H](O[C@H]2C[C@@](C)(OC)[C@@H](O)[C@H](C)O2)[C@H](C)[C@@H](O[C@@H]2O[C@H](C)C[C@H](N(C)C)[C@H]2O)[C@](C)(OC)C[C@@H](C)C(=O)[C@H](C)[C@@H](O)[C@]1(C)O` [Clarithromycin form 0, 6-O-methylerythro-mycin A], for which the “time of exposure for complete transformation directly to form II” value in data set [1] (23.8 atm (350 psi) CO2, room temperature) was 4 h.

Turning to `CC[C@H]1OC(=O)[C@H](C)[C@@H](O[C@H]2C[C@@](C)(OC)[C@@H](O)[C@H](C)O2)[C@H](C)[C@@H](O[C@@H]2O[C@H](C)C[C@H](N(C)C)[C@H]2O)[C@](C)(OC)C[C@@H](C)C(=O)[C@H](C)[C@@H](O)[C@]1(C)O` [Clarithromycin form I, 6-O-methylerythro-mycin A], the “time for transformation to form II” value in data set [1] (pressurization under 350 psi CO2) is reported as “within just several minutes”.

Regarding `Cc1c(OCC(F)(F)F)ccnc1C[S+]([O-])c1nc2ccccc2[nH]1` (stereo not drawn) [Lansoprazole ethanol hydrate, Lansoprazole], in data set [2], the “chemical stability of the solvate” value was “prone to decomposition”. The “transformation of ethanol hydrate to solvent-free form” value in data set [1] (500 psi CO2, room temperature) is recorded as “transformation to the more thermodynamically stable solvent-free form begins”.

In the case of `CO[C@@H]1[C@@H](OC(N)=O)[C@@H](O)[C@H](Oc2ccc3c(O)c(NC(=O)c4ccc(O)c(CC=C(C)C)c4)c(=O)oc3c2C)OC1(C)C` [novobiocin amorphous phase, novobiocin], in data set [3], the “absorption upon oral administration” value is given as “readily absorbed”.

With `CO[C@@H]1[C@@H](OC(N)=O)[C@@H](O)[C@H](Oc2ccc3c(O)c(NC(=O)c4ccc(O)c(CC=C(C)C)c4)c(=O)oc3c2C)OC1(C)C` [novobiocin crystalline form, novobiocin], the “absorption upon oral administration” value in data set [3] is on record as “poorly absorbed”.
